Patent US11884710B2, “Peptide compounds and methods of use in wound healing” (priority 2013, dated 2024)
Read-outs that look alike come from different tables or passages of the source. Square brackets hold non-standard residues; d marks the D form. Ends that are not written are not given here. PEG2 = NCCOCCOCCC(=O)O

How the values were obtained:
[1] = test system: Pseudomonas clinical isolate B64; test: BIOSCREEN C growth assay, peptide plus antibiotic combinations; type: cell-based, Pseudomonas aeruginosa; details: for MIC: Pseudomonas
Experimental: FIGS. 28A and 28B show the effect of BCC002-5R-MP (SEQ ID NO:21) in combination with Cefotaxime on MIC using Pseudomonas clinical isolate B64. Cefotaxime (Cefo) and peptide combinations included a constant amount of Cefotaxime (2.81 μg/ml) with suboptimal amounts of peptide (0, 0.34, 1.01, and 3.04 μg/ml). […] FIG. 28B is a histogram showing Fractional area (FA), which is an indication of the MIC.
FIG. 29B is a histogram showing Fractional area (FA), which is an indication of the MIC.
FIGS. 30A and 30B show the effect of BCC02-5R-MP (SEQ ID NO:21) in combination with Levofloxacin (Levo) and peptide combinations included a constant amount of Levofloxacin (3.6 μg/ml) with suboptimal amounts of peptide (0, 0.34, 1.01, 3.04 μg/ml). […] FIG. 30B is a histogram showing Fractional area (FA), which is an indication of the MIC.
The peptide and antibiotics were set up in the wells of the microtiter plate at starting ratios of MIC equivalents of antibiotic:peptide at 3:1, 1:1, and 1:3. They were serially diluted to concentrations well below suboptimal/sublethal levels of the antibiotic and peptide. The organism was added (1×10^5 CFU/well), the BIOSCREEN C™ assay (Growth Systems USA, Piscataway, N.J.) was performed, and data was collected over 24 hours.

[2] = test system: Pseudomonas aeruginosa ATCC 27853; test: In vitro bactericidal assay, P. aeruginosa ATCC 27853 (FIGS. 12-14); type: cell-based; details: for bactericidal effectiveness concluded by extrapolation: even at substantially lower concentrations of the peptide
Experimental: (§1) Each of the test peptides was used at 25, 12.5 6.25, and 3.12 μM. The gentamicin was used at 4 μg/ml. 1×10^6/ml Pseudomonas aeruginosa ATCC® 27853™ (American Type Culture Collection, Manassas, Va.) were incubated with the peptides, negative buffer control (tryptone saline), and positive control gentamicin for 180 minutes at pH 7.2. 50 μl aliquots were plated out on agar plates and incubated overnight. Colony forming units were counted after overnight incubation and CFU/ml calculated.
as §1, with “12.5,” for “12.5”, “5.5.” for “7.2.”
FIG. 14 is a comparison of bactericidal activity of CAP37 peptides 120-146WR (SEQ ID NO:30), 120-146WH (SEQ ID NO:31), 120-146QR (SEQ ID NO:28), 120-146QH (SEQ ID NO:29), 120-146QR-5RMP (SEQ ID NO:32), and 120-146QH-5RMP (SEQ ID NO:33) for Pseudomonas aeruginosa ATCC® 27853™ (American Type Culture Collection, Manassas, Va.). 1×10^6/ml Pseudomonas aeruginosa ATCC® 27853™ were incubated with the peptides at 150, 75, and 37.5 μg/ml and negative buffer control (tryptone saline) for 180 minutes at pH 5.5. 50 μl aliquots were plated out on agar plates and incubated overnight. Colony forming units were counted after overnight incubation and CFU/ml calculated.
(§2) For FIGS. 10-13, in vitro bactericidal assays were performed using a starting inoculum of 1×10^6 CFU/ml of the bacterial suspension. The CFU remaining at the end of the 60-180 minute incubation was determined, and the data was plotted as log reduction in CFU/ml.
(§3) In particular, each of the test peptides (CAP37 peptides 120-146WR, 120-146WH, and 95-122 (SEQ ID NOS:30, 31, and 26, respectively)) was used at 25, 12.5, 6.25, and 3.12 μM. Gentamicin was used at 4 μg/ml. 1×10^6/ml Acinetobacter baumannii ATCC® BAA-747™ or Pseudomonas aeruginosa ATCC® 27853™ (American Type Culture Collection, Manassas, Va.) were incubated with the peptides, negative buffer control (tryptone saline), and positive control gentamicin at pH 5.5 or 7.2. A 60 minute incubation was used for Acinetobacter baumannii ATCC® BAA-747™, while a 180 minute incubation was used for Pseudomonas aeruginosa ATCC® 27853™. 50 μl aliquots were plated out on agar plates and incubated overnight. Colony forming units were counted after overnight incubation and CFU/ml calculated.
For FIG. 14, 1×10^6/ml Pseudomonas aeruginosa ATCC® 27853™ were incubated with each of the test peptides (CAP37 peptides 120-146WR, 120-146WH, 120-146QR, 120-146QH, 120-146QR-5RMP, and 120-146QH-5RMP (SEQ ID NOS:30, 31, 28, 29, 32, and 33, respectively)) at 150, 75, and 37.5 μg/ml, or negative buffer control (tryptone saline), for 180 minutes at pH 5.5. 50 μl aliquots were plated out on agar plates and incubated overnight. Colony forming units were counted after overnight incubation and CFU/ml calculated.

[3] = test system: full thickness excisional wounds; test: Histopathology of swine dermal wounds; type: in vivo; design: Inflammation, mean histopathology score / Angiogenesis, mean histopathology score / Granulation, mean histopathology score / Epithelization, mean histopathology score: scale not given here
Experimental: The characteristics that were measured are required to indicate features of a well-healed wound. Inflammation should be low and re-epithelialization high.
(§4) Full thickness excisional wounds were induced on the dorsum of swine (N=3) using a 1.0 cm biopsy punch. Treatments were administered (0.20 ml) to each wound (N=6 wounds per group), and the wounds were dressed with standard occlusive dressing ([…]™, 3M Corporation, St. Paul, Minn.). Treatments were reapplied daily and dressings changed. Clinical wound healing observations and wound area (2 mm) measurements were performed on days 0, 3, 5, 7, 10, and 14 post-wounding. Wound area (2 mm) data were expressed as percentage (%) of wound healing. Animals were terminated on day 14 with wounds harvested and processed for histological evaluation. […] All peptide formulation treatment groups healed faster with greater rate of closure and re-epithelialization over time, as compared to the saline control (Group A).
The histology correlated with the clinical observations. […] There were minimal differences in the amount or character of granulation tissue, inflammation, and angiogenesis. All the wounds were well filled and vascularized.

[4] = test system: full thickness excisional wounds; test: Swine full thickness excisional dermal wound model; type: in vivo; details: for Mean Wound Healing (%): topical 3 mg/ml, 0.20 ml daily
Experimental: In this Example, peptide compounds of the presently disclosed inventive concepts were evaluated as to their activity on the dermal wound healing process in a clinically relevant swine full thickness excisional wound model. Three different peptide formulations (Group B, Peptide 95-122 (SEQ ID NO:26); Group C, Peptide 120-146WH (SEQ ID NO:31); and Group D, Peptide 120-146QH-5RMP (SEQ ID NO:33)) were each evaluated at the same concentration (3 mg/ml). Sterile saline served as the control (Group A).
as §4

[5] = test system: Acinetobacter baumannii ATCC BAA-747; test: In vitro bactericidal assay, A. baumannii ATCC BAA-747 (FIGS. 10-11); type: cell-based; details: 60 minutes, peptides 3.12-25 μM, gentamicin 4 μg/ml
Experimental: as §1, with “6.25” for “6.25,”, “Acinetobacter baumannii” for “Pseudomonas aeruginosa”, “BAA-747™” for “27853™”, “60” for “180”, “5.5.” for “7.2.”
as §1, with “6.25” for “6.25,”, “Acinetobacter baumannii” for “Pseudomonas aeruginosa”, “BAA-747™” for “27853™”, “60” for “180”
as §2, §3

[6] = test system: human corneal epithelial cell (HCEC); test: HCEC chemotaxis, modified Boyden chemotaxis chamber; type: cell-based; details: for HCEC migration compared with the whole CAP37 protein, in words: 120-146QH at 10^−6 M and 10^−8 M, 120-146QR concentration not stated; for migration of HCECs vs buffer control, in words: 3 hours at 37° C.
Experimental: The effect of buffer control (0.1% BSA in Gey's buffer), heparin binding-epidermal growth factor (HB-EGF, 50 ng/ml), recombinant CAP37 (rCAP37, 250 ng/ml), 120-146QH (10^−12M, 10^−10 M, 10^−8 M, 10^−6M, and 10^−4M,) and 120-146QR (10^−10M, 10^−8M, 10^−6M, and 10^−4M) on HCEC chemotaxis was determined by the modified Boyden chemotaxis chamber method. HCEC chemotaxis was measured in response to HB-EGF, rCAP37, and peptides 120-146QH (SEQ ID NO:29) and 120-146QR (SEQ ID NO:28) after incubation for 3 hours at 37° C. Chemotaxis is expressed as a percent migration. The buffer control (no chemoattractant) is arbitrarily assigned the value of 100% migration. Data are expressed as means±SEM and are calculated from 6 observations for each test point. **P<0.01 by Wilcoxon signed-rank test as compared to controls.
Chemotaxis: Chemotaxis assays were performed using the modified Boyden chemotaxis chamber assay. Peptide 120-146QH was used at 10^−4 M, 10^−6 M, 10^−8 M, 10^−10 M, and 10^−12 M, and peptide 120-146QR was used at 10^−4 M, 10^−6 M, 10^−8M, and 10^−10M.

[7] = antibiotic alone, 1×10^5 CFU/well, 24 hours, read-out: MIC
[8] = wounds harvested on day 14, 3 mg/ml

Compound: CO/N=C(\C(=O)N[C@@H]1C(=O)N2C(C(=O)O)=C(COC(C)=O)CS[C@H]12)c1csc(N)n1 [Cefotaxime]
- bactericidal impact on growth curve, in words ([1]; Cefotaxime alone at 2.8 μg/ml): very little bactericidal impact
- MIC [1, 7]: 15 µg/mL

Compound: C[C@H]1COc2c(N3CCN(C)CC3)c(F)cc3c(=O)c(C(=O)O)cn1c23 [Levofloxacin]
- MIC [1, 7]: 15 µg/mL
- MIC ([1]; in the presence of 3.04 μg/ml of peptide BCC02-5RMP, read-out: MIC of Levofloxacin with peptide): 3.5 µg/mL

Compound: (AEEP)-(AEEP)-RRRRGTRCQVAGWGSWRSGGRLSRFPRFVNVR ([PEG2][PEG2]RRRRGTRCQVAGWGSWRSGGRLSRFPRFVNVR) [120-146WR-5RMP]
- predicted killing capabilities [2]: superior killing capabilities
- bactericidal effectiveness concluded by extrapolation [2]: highly effective

Compound: (AEEP)-(AEEP)-RRRRGTRCQVAGWGSWHSGGRLSRFPRFVNVR ([PEG2][PEG2]RRRRGTRCQVAGWGSWHSGGRLSRFPRFVNVR) [120-146WH-5RMP]
- predicted killing capabilities [2]: superior killing capabilities
- bactericidal effectiveness concluded by extrapolation [2]: highly effective

Compound: (AEEP)-(AEEP)-RRRRGTRCQVAGWGSQHSGGRLSRFPRFVNVR ([PEG2][PEG2]RRRRGTRCQVAGWGSQHSGGRLSRFPRFVNVR) [120-146QH-5RMP]
- epidermal resurfacing and maturation vs saline control, in words ([3]; day 14 post-wounding): greater extent of epidermal resurfacing and maturation of the epidermis
- Angiogenesis, mean histopathology score [3, 8]: 1.3
- Epithelization, mean histopathology score [3, 8]: 4.0
- Granulation, mean histopathology score [3, 8]: 4.0
- Inflammation, mean histopathology score [3, 8]: 0.5
- Mean Wound Healing (%) ([4]; Day 0): 0.0%
- Mean Wound Healing (%) ([4]; Day 3): 22.5%
- Mean Wound Healing (%) ([4]; Day 5): 34.1%
- Mean Wound Healing (%) ([4]; Day 7): 64.1%
- Mean Wound Healing (%) ([4]; Day 10): 93.7%
- Mean Wound Healing (%) ([4]; Day 14): 98.0%
- percentage of wound healing vs saline control, in words ([4]; days 10 and 14 post-wounding, 3 mg/ml): significant (p<0.05) increase in the percentage of wound healing
- reduction in CFU ([2]; FIG. 14, pH 5.5, 180 minutes, even at the lower concentration (75 μg/ml)): ~6 log

Compound: gentamicin [reference compound]
- bactericidal activity, in words ([5]; pH 5.5): unable to kill the bacteria
- bactericidal activity, in words ([5]; pH 7.2): active against the bacteria
- bactericidal activity, in words ([2]; 120-146WR at 25 μM, gentamicin 4 μg/ml): highly active
- reduction of CFU/ml ([2]; pH 5.5, 180 minutes, gentamicin 4 μg/ml): 2 log
- bactericidal activity, in words ([2]; pH 5.5, 180 minutes, peptides 3.12-25 μM, gentamicin 4 μg/ml): not as effective as the peptides

Compound: GTRCQVAGWGSQHSGGRLSRFPRFVNV (derivative of peptide of Homo sapiens CAP37 protein) [Peptide 120-146QH]
- HCEC migration compared with the whole CAP37 protein, in words [6]: comparable to the migration obtained with the whole CAP37 protein
- migration of HCECs vs buffer control, in words ([6]; peptide at 10^−4 M, 10^−6 M, 10^−8 M, and 10^−10 M): significantly increase migration of HCECs
- activity in in vitro killing assays, in words ([2]; FIG. 14, pH 5.5, 180 minutes): relatively inactive

Compound: GTRCQVAGWGSQRSGGRLSRFPRFVNV (listed as Homo sapiens) [Peptide 120-146QR]
- HCEC migration compared with the whole CAP37 protein, in words [6]: less than the migration obtained with the whole protein
- migration of HCECs vs buffer control, in words ([6]; peptide at 10^−6 M and 10^−8 M): significantly increase migration of HCECs
- activity in in vitro killing assays, in words ([2]; FIG. 14, pH 5.5, 180 minutes): relatively inactive
